Experimental data published in ChEMBL document CHEMBL1142643, “Haligramides A and B, two new cytotoxic hexapeptides from the marine sponge Haliclona nigra” (J Nat Prod, 2000).
Converted amounts (≈) assume the structure as drawn. Starred links: 1 amine or outer side, 2 acyl side, 3 side chain; linkers in the order of their positions; H or OH if unused. Non-standard residues stand in square brackets, D forms with d. Residues, ends and D or L forms follow the SMILES beside them. X1 = O=C(c1csc([C@H](Cc2ccccc2)N[*:1])n1)[*:2]; Met(O) = CS(=O)CC[C@H](N)C(=O)O

Columns and labels:
Type in all cases: functional, cell-based
[1] = tested on: A549; assay: Cytotoxicity against human A549 cells after 2 days; settings: A549, 48 h
[2] = tested on: SNB-19; assay: Cytotoxicity against human SNB19 cells after 2 days; settings: SNB-19, 48 h
[3] = tested on: SF-539; assay: Cytotoxicity against human SF539 cells after 2 days; settings: SF-539, 48 h
[4] = tested on: HCT-15; assay: Cytotoxicity against human HCT15 cells after 2 days; settings: HCT-15, 48 h

Row | Structure (SMILES) | IC50 [1] | IC50 [2] | IC50 [3] | IC50 [4]
1 | CSCC[C@@H]1NC(=O)[C@@H]2CCCN2C(=O)[C@@H]2CCCN2C(=O)[C@H](CC[S+](C)[O-])NC(=O)c2csc(n2)[C@H](Cc2ccccc2)NC(=O)[C@@H]2CCCN2C1=O (stereo partly drawn) [HALIGRAMIDE B] (cyclo(MP[X1][Met(O)]PP)) | 3.89 µg/mL (≈ 4.86 µM) | 6.56 µg/mL (≈ 8.2 µM) | 5.01 µg/mL (≈ 6.26 µM) | 8.82 µg/mL (≈ 11 µM)
2 | CSCC[C@@H]1NC(=O)[C@@H]2CCCN2C(=O)[C@@H]2CCCN2C(=O)[C@H](CCSC)NC(=O)c2csc(n2)[C@H](Cc2ccccc2)NC(=O)[C@@H]2CCCN2C1=O [HALIGRAMIDE A] (cyclo(MPPMP[X1])) | 5.17 µg/mL (≈ 6.59 µM) | 9.08 µg/mL (≈ 11.6 µM) | 9 µg/mL (≈ 11.5 µM) | 15.6 µg/mL (≈ 19.9 µM)
